Reference: US7572439B2, “Enzyme disruption of bacterial biofilms” (priority 2002, dated 2009)

How the values were obtained:
[1] = test system: biofilms of S. aureus SA113; assay: Kinetic effect on established biofilms: absorbance at 650 nm and safranin staining; type: cell-based; details: for effect on established biofilms (safranin): 400 μg/ml oxacillin or 800 μg/ml vancomycin, PBS or TSB, 24 hours; for absorbance of biofilms at 650 nM: as much as 400 μg/ml oxacillin or 800 μg/ml vancomycin in PBS; for absorbance of biofilms at 650 nM / effect on S. aureus biofilms (FIG. 8 legend): twenty four hours; for effect on absorbance of biofilms: in TSB, 24 hours (data not shown); for effect on S. aureus biofilms (FIG. 8 legend): PBS or bacterial media
Protocol: Oxacillin and vancomycin have often been used in antibiotic susceptibility studies of S. aureus biofilms. […] Twenty four-hour biofilms in polystyrene 96-well tissue culture plates were treated with serial dilutions of lysostaphin, oxacillin, and vancomycin (FIG. 7).
In order to examine the kinetic effect of lysostaphin, oxacillin and vancomycin on biofilms, the absorbance of established biofilms in a 96-well tissue culture plate was measured over time (0-3 hrs and 24 hrs). Tissue culture wells containing biofilms of S. aureus SA113 were incubated with serial dilutions of lysostaphin ([…]), oxacillin ([…]), or vancomycin ([…]) for 24 hours, and the absorbance at 650 nm was monitored every 20 minutes for the first 3 hours and then again at 24 hours. The absorbance of the lysostaphin-treated biofilms dropped from approximately 0.35 at time zero to 0.125 after 3 hours of treatment and dropped to near base line (0.04) by 24 hrs when treated with a dose of lysostaphin of 6.25 μg/ml in PBS (FIG. 7). […] Since antimicrobials like oxacillin or vancomycin are effective against actively metabolizing bacteria, a similar experiment was conducted but the biofilms were incubated with the three anti-microbials in bacterial media (TSB). Very similar results were also found when the assay was conducted in TSB rather than PBS.
The capacity of the three agents to disrupt S. aureus biofilms in polystyrene wells can be visualized by comparing the staining intensity of treated wells versus control (buffer-treated) wells.

[2] = test system: Methicillin Sensitive S. aureus; assay: Treatment of established infection in jugular vein catheterized mice; type: in vivo; details: Table 4, MSSA, Nafcillin (50) b.i.d. 4 days
Protocol: Jugular vein catheterized mice (Charles River Labs) were used. The mice were challenged through the tail vein with S. aureus (10^3-10^4CFU, a much lower dose than the 5×10^6 CFU or greater typically necessary to establish an infection in mice not catheterized). Treatment began four days post challenge when infection was established. Lysostaphin was administered through the indwelling catheter in a volume of 200 μ PBS (in the case of methicillin resistant S. aureus, nafcillin was added to the treatment). After the final treatment of the day, 50 μl of a lock solution (50% sterile glucose solution) with lysostaphin (and nafcillin, when used), added at the same concentration as used for treatment, was put in the catheters. Control mice received equal treatments with PBS and lock solution alone.
On the day following the last treatment the liver, heart and a portion of the catheter in the heart were harvested. The catheter portions were sonicated to release bacteria.

| SMILES | effect on established biofilms (safranin) [1] | absorbance of biofilms at 650 nM [1] | effect on absorbance of biofilms [1] | effect on absorbance of S. aureus biofilms over time (FIG. 7 legend) ([1]; lysostaphin 6.25 μg/ml, vancomycin 800 μg/ml, oxacillin 400 μg/ml) | effect on S. aureus biofilms (FIG. 8 legend) ([1]; oxacillin 1.6-400 μg/ml, vancomycin 3.2-800 μg/ml) | effect on absorbance of S. aureus biofilms over time (FIG. 7 legend) ([1]; lysostaphin 6.25 cg/ml, vancomycin 800 cg/ml, oxacillin 400 cg/ml) | effect on S. aureus biofilms (FIG. 8 legend) ([1]; oxacillin 1.6-400 cg/ml, vancomycin 3.2-800 cg/ml) | S. aureus recovered, Heart [2] [CFU] |
| --- | --- | --- | --- | --- | --- | --- | --- | --- |
| CN[C@H](CC(C)C)C(=O)N[C@H]1C(=O)N[C@@H](CC(N)=O)C(=O)N[C@H]2C(=O)N[C@H]3C(=O)N[C@H](C(=O)N[C@H](C(=O)O)c4cc(O)cc(O)c4-c4cc3ccc4O)[C@H](O)c3ccc(c(Cl)c3)Oc3cc2cc(c3O[C@@H]2O[C@H](CO)[C@@H](O)[C@H](O)[C@H]2O[C@H]2C[C@](C)(N)[C@H](O)[C@H](C)O2)Oc2ccc(cc2Cl)[C@H]1O [vancomycin] | no obvious effect | around 0.325 | little or no effect | no effect | no effect | – | – | – |
| Cc1onc(-c2ccccc2)c1C(=O)N[C@@H]1C(=O)N2[C@@H]1SC(C)(C)[C@@H]2C(=O)O [oxacillin] | no obvious effect | around 0.325 | little or no effect | – | – | no effect | no effect | – |
| CCOc1ccc2ccccc2c1C(=O)N[C@@H]1C(=O)N2[C@@H]1SC(C)(C)[C@@H]2C(=O)O [Nafcillin, nafcillin, reference compound] | – | – | – | – | – | – | – | 0 |
